{"source": "paper PMC7782793", "about": "“Hydroxamic acid-modified peptide microarrays for profiling isozyme-selective interactions and inhibition of histone deacetylases” (Nature Communications, 2021)", "key": {"HDAC6": {"biological_target": "T1, HDAC6 (Homo sapiens, UniProt Q9UBN7)", "T1 construct": "HDAC6 (full length, BPS Bioscience, cat. #: 50056); purchased BPS Bioscience 50056", "T1 sequence (Q9UBN7 1-1215)": "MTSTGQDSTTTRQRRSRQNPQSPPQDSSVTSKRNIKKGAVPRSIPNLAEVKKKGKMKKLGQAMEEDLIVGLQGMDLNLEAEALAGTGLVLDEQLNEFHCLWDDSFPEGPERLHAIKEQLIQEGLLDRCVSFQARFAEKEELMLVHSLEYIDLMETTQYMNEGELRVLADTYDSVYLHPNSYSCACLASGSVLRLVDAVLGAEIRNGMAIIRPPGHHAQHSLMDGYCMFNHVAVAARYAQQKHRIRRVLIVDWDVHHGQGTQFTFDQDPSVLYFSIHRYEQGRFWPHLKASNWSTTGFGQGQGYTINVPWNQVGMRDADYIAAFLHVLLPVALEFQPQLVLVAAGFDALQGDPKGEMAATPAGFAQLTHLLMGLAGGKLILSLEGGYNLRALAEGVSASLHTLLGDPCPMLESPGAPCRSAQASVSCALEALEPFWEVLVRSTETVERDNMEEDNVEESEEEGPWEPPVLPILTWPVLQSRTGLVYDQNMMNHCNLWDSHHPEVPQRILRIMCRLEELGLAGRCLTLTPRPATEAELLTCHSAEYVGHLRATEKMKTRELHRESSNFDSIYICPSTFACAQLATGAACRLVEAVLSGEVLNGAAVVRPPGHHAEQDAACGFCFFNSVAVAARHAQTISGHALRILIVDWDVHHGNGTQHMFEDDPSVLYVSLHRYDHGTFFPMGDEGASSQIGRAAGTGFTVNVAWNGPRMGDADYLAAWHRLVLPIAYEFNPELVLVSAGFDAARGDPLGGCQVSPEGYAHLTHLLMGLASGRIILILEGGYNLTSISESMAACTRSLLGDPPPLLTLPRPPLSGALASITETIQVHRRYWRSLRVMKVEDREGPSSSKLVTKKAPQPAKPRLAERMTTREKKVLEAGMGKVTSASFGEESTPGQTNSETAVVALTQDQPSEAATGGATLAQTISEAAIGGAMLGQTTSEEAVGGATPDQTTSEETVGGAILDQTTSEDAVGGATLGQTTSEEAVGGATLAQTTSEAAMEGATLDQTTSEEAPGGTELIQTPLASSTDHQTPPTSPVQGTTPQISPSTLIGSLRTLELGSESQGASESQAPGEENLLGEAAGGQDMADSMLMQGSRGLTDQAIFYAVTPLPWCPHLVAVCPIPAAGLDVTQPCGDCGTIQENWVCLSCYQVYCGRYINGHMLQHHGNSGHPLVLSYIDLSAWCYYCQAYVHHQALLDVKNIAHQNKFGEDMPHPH", "test": "HDAC inhibition assay (fluorogenic, Ac-Leu-Gly-Lys(Ac)-AMC)", "format": "biochemical", "details": "HDAC6, replicates"}, "HDAC2": {"biological_target": "T2, HDAC2 (Homo sapiens, UniProt Q92769)", "T2 construct": "HDAC2 (full length, C-terminal His tag, BPS Bioscience, cat. #: 50002); purchased BPS Bioscience 50002", "T2 sequence (Q92769 whole entry)": "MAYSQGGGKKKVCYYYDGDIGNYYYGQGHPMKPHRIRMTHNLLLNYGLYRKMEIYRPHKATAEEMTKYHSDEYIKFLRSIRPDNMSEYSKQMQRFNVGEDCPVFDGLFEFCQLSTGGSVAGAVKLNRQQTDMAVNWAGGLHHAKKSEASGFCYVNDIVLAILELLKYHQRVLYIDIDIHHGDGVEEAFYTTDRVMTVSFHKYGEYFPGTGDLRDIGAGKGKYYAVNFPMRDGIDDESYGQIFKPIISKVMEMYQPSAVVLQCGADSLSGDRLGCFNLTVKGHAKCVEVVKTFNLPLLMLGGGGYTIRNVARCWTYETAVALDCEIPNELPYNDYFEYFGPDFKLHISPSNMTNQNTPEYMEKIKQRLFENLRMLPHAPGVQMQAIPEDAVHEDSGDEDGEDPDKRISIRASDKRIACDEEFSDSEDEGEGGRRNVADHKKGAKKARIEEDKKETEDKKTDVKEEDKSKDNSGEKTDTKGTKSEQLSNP", "test": "HDAC inhibition assay (fluorogenic, Ac-Leu-Gly-Lys(Ac)-AMC)", "format": "biochemical", "details": "for HDAC2 dose-response data (relative enzyme activity), Fig. 6 + S. Fig. 10: duplicate columns"}, "HDAC1": {"biological_target": "T3, HDAC1 (Homo sapiens, UniProt Q13547)", "T3 construct": "HDAC1 (full length, C-terminal His tag, C-terminal FLAG tag, BPS Bioscience, cat. #: 50051); FLAG (C); purchased BPS Bioscience 50051", "T3 sequence (Q13547 whole entry)": "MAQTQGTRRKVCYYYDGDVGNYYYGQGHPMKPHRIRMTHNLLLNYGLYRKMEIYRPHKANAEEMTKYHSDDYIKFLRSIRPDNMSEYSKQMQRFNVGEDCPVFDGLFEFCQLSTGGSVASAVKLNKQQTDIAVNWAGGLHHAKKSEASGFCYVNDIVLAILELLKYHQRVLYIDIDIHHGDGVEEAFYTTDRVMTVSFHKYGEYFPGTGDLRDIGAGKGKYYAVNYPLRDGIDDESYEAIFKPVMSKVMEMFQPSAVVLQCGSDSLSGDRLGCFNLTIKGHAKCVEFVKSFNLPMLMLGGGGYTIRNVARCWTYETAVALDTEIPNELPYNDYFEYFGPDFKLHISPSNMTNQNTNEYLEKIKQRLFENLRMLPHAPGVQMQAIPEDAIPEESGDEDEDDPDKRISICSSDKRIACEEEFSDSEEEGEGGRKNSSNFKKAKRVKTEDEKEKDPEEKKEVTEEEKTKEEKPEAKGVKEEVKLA", "test": "Recombinant HDAC µSPOT microarray binding assay;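 for all read-outs here: slides with spotted peptides incubated with six HDAC concentrations in HEPES buffer pH 7.4, spot intensities fitted by four-parameter logistic, EC50 as enzyme concentration giving half-maximal binding signal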"}, "HDAC8": {"biological_target": "T4, HDAC8 (Homo sapiens, UniProt Q9BY41)", "T4 construct": "HDAC8 (full length, C-terminal His tag, BPS Bioscience, cat. #: 50008); purchased BPS Bioscience 50008", "T4 sequence (Q9BY41 1-377)": "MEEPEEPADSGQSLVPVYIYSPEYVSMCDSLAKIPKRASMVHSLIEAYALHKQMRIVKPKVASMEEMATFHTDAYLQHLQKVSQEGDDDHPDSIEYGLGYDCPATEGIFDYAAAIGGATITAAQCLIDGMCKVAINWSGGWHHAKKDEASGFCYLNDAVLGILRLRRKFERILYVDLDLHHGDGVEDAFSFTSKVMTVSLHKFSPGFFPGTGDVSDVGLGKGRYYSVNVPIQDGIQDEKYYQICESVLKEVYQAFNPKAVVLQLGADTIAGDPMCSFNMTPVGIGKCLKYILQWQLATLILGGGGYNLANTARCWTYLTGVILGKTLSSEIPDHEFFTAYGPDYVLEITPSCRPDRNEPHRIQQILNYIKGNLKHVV", "test": "HDAC inhibition assay (fluorogenic, Ac-Leu-Gly-Lys(Tfa)-AMC)", "format": "biochemical", "details": "for HDAC8 dose-response data (relative enzyme activity, replicate values), Fig. 6 + S. Fig. 10: two replicate columns per inhibitor; for HDAC8 dose-response data (relative enzyme activity), Fig. 6 + S. Fig. 10: duplicate columns"}}, "note": "Where “and” joins values, the source holds several entries; their conditions need not be identical. Equal values may be shown once. Marks after values point to notes of the source that are not given here. Non-standard residues stand in square brackets, D forms with d. Residues, ends and D or L forms follow the SMILES beside them. *: point of attachment. Asu = N[C@@H](CCCCCC(=O)O)C(=O)O; NHOH = ON*", "data": [{"smiles": "CC[C@H](C)[C@H](NC(=O)[C@@H](NC(=O)[C@H](CC(N)=O)NC(C)=O)C(C)C)C(=O)N[C@@H](CCCNC(=N)N)C(=O)N[C@@H](CC(=O)O)C(=O)N[C@@H](C)C(=O)N[C@H](C(=O)N[C@H](C(=O)N[C@@H](Cc1ccc(O)cc1)C(=O)N[C@H](C(=O)N[C@@H](CCC(=O)O)C(=O)N[C@@H](Cc1c[nH]cn1)C(=O)N[C@@H](C)C(=O)N[C@@H](CCCCCC(=O)NO)C(=O)N[C@@H](CCCNC(=N)N)C(=O)N[C@@H](CCCCN)C(=O)N[C@@H](Cc1c[nH]c2ccccc12)C(N)=O)[C@@H](C)O)[C@@H](C)O)C(C)C", "note": "[17a] (Ac-NVIRDAVTYTEHA[Asu](NHOH)RKW-NH2)", "values": [{"measurement": "residual enzymatic activity relative to control wells", "setting": "HDAC6; log[inhibitor(M)] -5", "result": "2.67 and 3.1"}, {"measurement": "residual enzymatic activity relative to control wells", "setting": "HDAC6; log[inhibitor(M)] -5.69897", "result": "11.05 and 12.51"}, {"measurement": "residual enzymatic activity relative to control wells", "setting": "HDAC6; log[inhibitor(M)] -6.39794", "result": "38.36 and 40.68"}, {"measurement": "residual enzymatic activity relative to control wells", "setting": "HDAC6; log[inhibitor(M)] -7.09691", "result": "72.92 and 74.07"}, {"measurement": "residual enzymatic activity relative to control wells", "setting": "HDAC6; log[inhibitor(M)] -7.79588", "result": "92.5 and 90.62"}, {"measurement": "residual enzymatic activity relative to control wells", "setting": "HDAC6; log[inhibitor(M)] -8.49485", "result": "97.52 and 97.55"}, {"measurement": "residual enzymatic activity relative to control wells", "setting": "HDAC6; log[inhibitor(M)] -9.19382", "result": "99.98 and 98.59"}, {"measurement": "residual enzymatic activity relative to control wells", "setting": "HDAC6; log[inhibitor(M)] -9.89279", "result": "98.46 and 98.12"}, {"measurement": "residual enzymatic activity relative to control wells", "setting": "HDAC6; log[inhibitor(M)] -10.585", "result": "98,71* and 97,59*"}, {"measurement": "HDAC2 dose-response data (relative enzyme activity), Fig. 6 + S. Fig. 10", "setting": "HDAC2; log[inhibitor(M)] -5", "result": "11.53 and 14.13"}, {"measurement": "HDAC2 dose-response data (relative enzyme activity), Fig. 6 + S. Fig. 10", "setting": "HDAC2; log[inhibitor(M)] -5.69897", "result": "38.85 and 44.3"}, {"measurement": "HDAC2 dose-response data (relative enzyme activity), Fig. 6 + S. Fig. 10", "setting": "HDAC2; log[inhibitor(M)] -7.79588", "result": "99.37 and 102.1"}, {"measurement": "HDAC2 dose-response data (relative enzyme activity), Fig. 6 + S. Fig. 10", "setting": "HDAC2; log[inhibitor(M)] -10,5850266520292*, whole line marked with asterisks", "result": "100,76* and 101,65*"}, {"measurement": "Ki", "setting": "HDAC2; resynthesized peptide in solution, Cheng-Prusoff, n = 2", "result": "183 ± 1", "unit": "nM"}, {"measurement": "EC50", "setting": "HDAC1", "result": "> 25.1", "unit": "nM"}, {"measurement": "Ki", "setting": "HDAC8", "result": "7640 ± 60", "unit": "nM"}, {"measurement": "HDAC8 dose-response data (relative enzyme activity, replicate values), Fig. 6 + S. Fig. 10", "setting": "HDAC8; Inhibitor conc [M] -8.49485 (log)", "result": "101.42 and 103.54"}, {"measurement": "HDAC8 dose-response data (relative enzyme activity, replicate values), Fig. 6 + S. Fig. 10", "setting": "HDAC8; Inhibitor conc [M] -9.19382 (log)", "result": "101.25 and 102.69"}, {"measurement": "HDAC8 dose-response data (relative enzyme activity, replicate values), Fig. 6 + S. Fig. 10", "setting": "HDAC8; Inhibitor conc [M] given as -7.09691 (log)", "result": "100.44 and 104.26"}, {"measurement": "HDAC8 dose-response data (relative enzyme activity, replicate values), Fig. 6 + S. Fig. 10", "setting": "HDAC8; Inhibitor conc [M] given as -7.79588 (log)", "result": "103.27 and 103.5"}, {"measurement": "HDAC8 dose-response data (relative enzyme activity, replicate values), Fig. 6 + S. Fig. 10", "setting": "HDAC8; Inhibitor conc [M] given as -9.89279 (log)", "result": "103.01 and 103.7"}, {"measurement": "HDAC8 dose-response data (relative enzyme activity, replicate values), Fig. 6 + S. Fig. 10", "setting": "HDAC8; Inhibitor conc [M] given as -10.585 (log)", "result": "99,9* and 101,68*"}, {"measurement": "HDAC8 dose-response data (relative enzyme activity), Fig. 6 + S. Fig. 10", "setting": "HDAC8; Inhibitor conc [M] -4.30103", "result": "25.68 and 25"}, {"measurement": "HDAC8 dose-response data (relative enzyme activity), Fig. 6 + S. Fig. 10", "setting": "HDAC8; Inhibitor conc [M] -5", "result": "60.57 and 62.81"}, {"measurement": "HDAC8 dose-response data (relative enzyme activity), Fig. 6 + S. Fig. 10", "setting": "HDAC8; Inhibitor conc [M] -5.69897", "result": "94.41 and 91.83"}, {"measurement": "HDAC8 dose-response data (relative enzyme activity), Fig. 6 + S. Fig. 10", "setting": "HDAC8; Inhibitor conc [M] -6.39794", "result": "100.36 and 103.01"}]}]}
